This series concerns melanoma cell line B16F10. Put plainly: MTT cytotoxicity evaluation of pretreatment substances. Type of series: cell-based, mouse. The settings on record: for viability of tumor cells: B16F10, 24 hours. How it is done:
To conduct the cytotoxicity evaluation of each pretreatment substance (tunicamycin and metformin) on the melanoma cell line B16F10, 3-(4,5-dimethylthiazol-2-yl)-2,5-diphenyltetrzolium bromide (MTT) assay was performed. First, 10^4 cells were seeded in each 96-well plate and cultured for 24 hours. Then, cells in each well were treated with each substance at a given concentration and cultured for an additional 24 hours. After the supernatant was discarded, the cells were treated with an MTT-containing medium at the concentration of 0.5 mg/ml and left for two hours, and the intracellular formazan crystals were dissolved in each well using dimethylsulfoxide. Then, the cytotoxicity was analyzed by measuring the absorbance at 570 nm by using a microplate reader.

This is an account of results in patent US20250134926A1, “COMPOSITION FOR ANTI-CANCER TREATMENT COMPRISING IMMUNOGENIC TUMOR-DERIVED EXTRACELLULAR VESICLES USING AN ENDOPLASMIC RETICULUM STRESS INDUCER AND METHOD FOR PRODUCING THE SAME” (priority 2023, published 2025).

Take tunicamycin: the “viability of tumor cells” value runs as follows: (concentrations of 0.05 μM or less) “no significant decrease”; (concentrations of 0.1 μM or more) “decrease in cell viability”. Further, where the note is “B16F10, MTT, 24 hours”, the “highest concentration at which no decrease in cell viability was observed” value was determined as 0.05 µM.
